# Experimental data reported in the SangsterLogP compilation.
row,Compound,logP
1,Cc1cc(C)c(C(=O)C(C)(C)CN2CCCCC2)c(C)c1,4.36
2,Cc1ccc(C(=O)CCN2CCCCC2)c(C)c1,3.71
3,Cc1ccccc1C(=O)CCN1CCCCC1,3.54
4,CCCOc1ccc(C(=O)CCN2CCCCC2)cc1,3.72
5,CC(CN1CCCCC1)C(=O)c1ccccc1 (stereo not drawn),3.51
6,CCCOc1ccc(C(=O)CCN2CCCCC2)c(C)c1,3.88
7,Cc1ccc(C(=O)CCN2CCCCC2)cc1,3.55
8,Cc1cc(C)c(C(=O)CCN2CCCCC2)c(C)c1,3.7
9,CCCOc1ccc(C(=O)C(C)(C)CN2CCCCC2)cc1,4.07
10,CCCOc1ccc(C(=O)C(C)CN2CCCCC2)cc1 (stereo not drawn),3.81
11,CC(C)(CN1CCCCC1)C(=O)c1ccccc1,3.78
12,CCCOc1cc(C)c(C(=O)C(C)(C)CN2CCCCC2)c(C)c1,4.51
13,Cc1ccc(C(=O)C(C)(C)CN2CCCCC2)cc1,3.92
14,CCCOc1cc(C)c(C(=O)CCN2CCCCC2)c(C)c1,3.84

# Continued, values first:
row,logP,Compound
1,4.11,CCCOc1cc(C)c(C(=O)C(C)CN2CCCCC2)c(C)c1 (stereo not drawn)
2,3.53,Cc1cccc(C)c1C(=O)CCN1CCCCC1
3,3.69,Cc1ccccc1C(=O)C(C)CN1CCCCC1 (stereo not drawn)
4,4,CCCOc1ccc(C(=O)C(C)CN2CCCCC2)c(C)c1 (stereo not drawn)
5,3.65,Cc1ccc(C(=O)C(C)CN2CCCCC2)cc1 (stereo not drawn)
6,3.98,Cc1cc(C)c(C(=O)C(C)CN2CCCCC2)c(C)c1 (stereo not drawn)
7,3.85,Cc1ccc(C(=O)C(C)CN2CCCCC2)c(C)c1 (stereo not drawn)
8,3.81,Cc1cccc(C)c1C(=O)C(C)CN1CCCCC1 (stereo not drawn)
9,4.2,Cc1cccc(C)c1C(=O)C(C)(C)CN1CCCCC1
